Assay results as given in patent US12291519B2, “2-hydroxycycloalkane-1-carbamoyl” (Idorsia Pharmaceuticals Ltd, priority 2019, dated 2025).

Tests used:
human Gal-1 (hGal-1) = test: Competitive binding assay: biotinylated hGal-1 binding to microplate-adsorbed asialofetuin (ASF); conditions: Activity on hGal-1; binding of biotinylated hGal-1 to ASF-coated plates; mean values
In short: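 Inhibition measured as loss of hGal-1 (biotinylated, 300–1000 ng/mL, wild type or Cys→Ser mutant) binding to adsorbed asialofetuin over 3 h at 4 °C. Bound lectin detected with streptavidin-HRP and ABTS (410 nm, 30–45 min); IC50 values averaged across repeat measurements.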

human Gal-3 (hGal-3) = human Gal-3 (hGal-3) (Homo sapiens (Human), UniProt P17931); test: Competitive binding assay: biotinylated hGal-3 binding to microplate-adsorbed asialofetuin (ASF); conditions: Activity on hGal-3; binding of biotinylated hGal-3 to ASF-coated plates; mean values
In short: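 Serially diluted compounds competed with biotinylated human Gal-3 for binding to plate-adsorbed asialofetuin over 3 h at 4 °C. Bound Gal-3 was detected with streptavidin-peroxidase (80 ng/mL, 1 h, 4 °C) and ABTS substrate. IC50 values are means of several measurements.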

Chain of human Gal-1 (hGal-1) (P09382 2-135 limits assumed): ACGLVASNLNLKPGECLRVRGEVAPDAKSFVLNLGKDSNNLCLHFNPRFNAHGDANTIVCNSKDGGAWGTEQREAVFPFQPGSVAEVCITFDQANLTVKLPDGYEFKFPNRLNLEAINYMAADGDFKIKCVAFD
Chain of human Gal-3 (hGal-3) (P17931 whole entry): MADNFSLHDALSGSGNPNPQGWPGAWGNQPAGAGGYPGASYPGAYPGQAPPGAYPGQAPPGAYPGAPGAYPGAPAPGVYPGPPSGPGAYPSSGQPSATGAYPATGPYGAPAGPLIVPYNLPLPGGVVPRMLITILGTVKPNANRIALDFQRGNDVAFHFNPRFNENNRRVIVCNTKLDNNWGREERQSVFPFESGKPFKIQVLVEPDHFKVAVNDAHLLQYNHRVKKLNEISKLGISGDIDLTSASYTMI

| SMILES | IC50 (human Gal-1 (hGal-1)) | IC50 (human Gal-3 (hGal-3)) |
| --- | --- | --- |
| O=C(CO[C@@H]1[C@@H](n2cc(-c3cc(F)c(F)c(F)c3)nn2)[C@@H](O)[C@@H](CO)O[C@H]1C(=O)N(c1cc(Cl)cc(Cl)c1)[C@H]1CCCC[C@@H]1O)N1CCC(O)CC1 [Example 127, (2R,3R,4S,5R,6R)—N-(3,5-dichlorophenyl)-5-hydroxy-N-((1S,2S)-2-hydroxycyclohexyl)-6-(hydroxymethyl)-3-(2-(4-hydroxypiperidin-1-yl)-2-oxoethoxy)-4-(4-(3,4,5-trifluorophenyl)-1H-1,2,3-triazol-1-yl)tetrahydro-2H-pyran-2-carboxamide] | 0.181 µM | 0.012 µM |
| O=C(CO[C@@H]1[C@@H](n2cc(-c3cc(F)c(F)c(F)c3)nn2)[C@@H](O)[C@@H](CO)O[C@H]1C(=O)N(c1cc(Cl)cc(Cl)c1)[C@H]1CCCC[C@@H]1O)N1CC(O)C1 [Example 128] | 0.177 µM | 0.013 µM |
| CO[C@@H]1[C@@H](n2cc(-c3cc(F)c(F)c(Cl)c3)nn2)[C@@H](O)[C@@H](CO)O[C@H]1C(=O)N(c1cc(Cl)cc(Cl)c1)[C@H]1CCCC[C@@H]1O [Example 129, (2R,3R,4S,5R,6R)-4-(4-(3-chloro-4,5-difluorophenyl)-1H-1,2,3-triazol-1-yl)-N-(3,5-dichlorophenyl)-5-hydroxy-N-((1S,2S)-2-hydroxycyclohexyl)-6-(hydroxymethyl)-3-methoxytetrahydro-2H-pyran-2-carboxamide] | 0.141 µM | 0.032 µM |
| CO[C@@H]1[C@@H](n2cc(-c3cc(F)c(F)c(Cl)c3)nn2)[C@@H](O)[C@@H](CO)O[C@H]1C(=O)N(c1ccc(F)c(F)c1)[C@H]1CCCC[C@@H]1O [Example 130, (2R,3R,4S,5R,6R)-4-(4-(3-chloro-4,5-difluorophenyl)-1H-1,2,3-triazol-1-yl)-N-(3,4-difluorophenyl)-5-hydroxy-N-((1S,2S)-2-hydroxycyclohexyl)-6-(hydroxymethyl)-3-methoxytetrahydro-2H-pyran-2-carboxamide] | 0.924 µM | 0.053 µM |
| CO[C@@H]1[C@@H](n2cc(-c3cc(F)c(F)c(Cl)c3)nn2)[C@@H](O)[C@@H](CO)O[C@H]1C(=O)N(c1ccc2ncsc2c1)[C@H]1CCCC[C@@H]1O [Example 131, (2R,3R,4S,5R,6R)-N-(benzo[d]thiazol-6-yl)-4-(4-(3-chloro-4,5-difluorophenyl)-1H-1,2,3-triazol-1-yl)-5-hydroxy-N-((1S,2S)-2-hydroxycyclohexyl)-6-(hydroxymethyl)-3-methoxytetrahydro-2H-pyran-2-carboxamide] | 0.224 µM | 0.034 µM |
| CO[C@@H]1[C@@H](n2cc(-c3cc(F)c(F)c(Cl)c3)nn2)[C@@H](O)[C@@H](CO)O[C@H]1C(=O)N(c1cc(Cl)cc(C#N)c1)[C@H]1CCCC[C@@H]1O [Example 132, (2R,3R,4S,5R,6R)-4-(4-(3-chloro-4,5-difluorophenyl)-1H-1,2,3-triazol-1-yl)-N-(3-chloro-5-cyanophenyl)-5-hydroxy-N-((1S,2S)-2-hydroxycyclohexyl)-6-(hydroxymethyl)-3-methoxytetrahydro-2H-pyran-2-carboxamide] | 0.14 µM | 0.013 µM |
| CO[C@@H]1[C@@H](n2cc(-c3cc(F)cc(Cl)c3)nn2)[C@@H](O)[C@@H](CO)O[C@H]1C(=O)N(c1ccc(F)c(F)c1)[C@H]1CCCC[C@@H]1O [Example 134, (2R,3R,4S,5R,6R)-4-(4-(3-chloro-5-fluorophenyl)-1H-1,2,3-triazol-1-yl)-N-(3,4-difluorophenyl)-5-hydroxy-N-((1S,2S)-2-hydroxycyclohexyl)-6-(hydroxymethyl)-3-methoxytetrahydro-2H-pyran-2-carboxamide] | 0.761 µM | 0.063 µM |
| CO[C@@H]1[C@@H](n2cc(-c3cc(F)cc(Cl)c3)nn2)[C@@H](O)[C@@H](CO)O[C@H]1C(=O)N(c1cc(F)cc(C#N)c1)[C@H]1CCCC[C@@H]1O [Example 135, (2R,3R,4S,5R,6R)-4-(4-(3-chloro-5-fluorophenyl)-1H-1,2,3-triazol-1-yl)-N-(3-cyano-5-fluorophenyl)-5-hydroxy-N-((1S,2S)-2-hydroxycyclohexyl)-6-(hydroxymethyl)-3-methoxytetrahydro-2H-pyran-2-carboxamide] | 0.27 µM | 0.052 µM |
| CO[C@@H]1[C@@H](n2cc(-c3cc(F)cc(Cl)c3)nn2)[C@@H](O)[C@@H](CO)O[C@H]1C(=O)N(c1cc(F)cc(Br)c1)[C@H]1CCCC[C@@H]1O [Example 136, (2R,3R,4S,5R,6R)-N-(3-bromo-5-fluorophenyl)-4-(4-(3-chloro-5-fluorophenyl)-1H-1,2,3-triazol-1-yl)-5-hydroxy-N-((1S,2S)-2-hydroxycyclohexyl)-6-(hydroxymethyl)-3-methoxytetrahydro-2H-pyran-2-carboxamide] | 0.323 µM | 0.025 µM |
| CO[C@@H]1[C@@H](n2cc(-c3cc(F)cc(Cl)c3)nn2)[C@@H](O)[C@@H](CO)O[C@H]1C(=O)N(c1cc(Br)cc(C#N)c1)[C@H]1CCCC[C@@H]1O [Example 137, (2R,3R,4S,5R,6R)-N-(3-bromo-5-cyanophenyl)-4-(4-(3-chloro-5-fluorophenyl)-1H-1,2,3-triazol-1-yl)-5-hydroxy-N-((1S,2S)-2-hydroxycyclohexyl)-6-(hydroxymethyl)-3-methoxytetrahydro-2H-pyran-2-carboxamide] | 0.318 µM | 0.024 µM |
| CO[C@@H]1[C@@H](n2cc(-c3cc(F)cc(Cl)c3)nn2)[C@@H](O)[C@@H](CO)O[C@H]1C(=O)N(c1cccc(Br)c1)[C@H]1CCCC[C@@H]1O [Example 138, (2R,3R,4S,5R,6R)-N-(3-bromophenyl)-4-(4-(3-chloro-5-fluorophenyl)-1H-1,2,3-triazol-1-yl)-5-hydroxy-N-((1S,2S)-2-hydroxycyclohexyl)-6-(hydroxymethyl)-3-methoxytetrahydro-2H-pyran-2-carboxamide] | 0.935 µM | 0.043 µM |
| CO[C@@H]1[C@@H](n2cc(-c3cc(F)cc(Cl)c3)nn2)[C@@H](O)[C@@H](CO)O[C@H]1C(=O)N(c1cc(Cl)cc(Cl)c1)[C@H]1CCCC[C@@H]1O [Example 139, (2R,3R,4S,5R,6R)-4-(4-(3-chloro-5-fluorophenyl)-1H-1,2,3-triazol-1-yl)-N-(3,5-dichlorophenyl)-5-hydroxy-N-((1S,2S)-2-hydroxycyclohexyl)-6-(hydroxymethyl)-3-methoxytetrahydro-2H-pyran-2-carboxamide] | 0.86 µM | 0.027 µM |
| CO[C@@H]1[C@@H](n2cc(-c3cc(F)cc(Cl)c3)nn2)[C@@H](O)[C@@H](CO)O[C@H]1C(=O)N(c1cc(C)cc(C#N)c1)[C@H]1CCCC[C@@H]1O [Example 140, (2R,3R,4S,5R,6R)-4-(4-(3-chloro-5-fluorophenyl)-1H-1,2,3-triazol-1-yl)-N-(3-cyano-5-methylphenyl)-5-hydroxy-N-((1S,2S)-2-hydroxycyclohexyl)-6-(hydroxymethyl)-3-methoxytetrahydro-2H-pyran-2-carboxamide] | 0.671 µM | 0.033 µM |
| COc1cc(C#N)cc(N(C(=O)[C@@H]2O[C@H](CO)[C@H](O)[C@H](n3cc(-c4cc(F)cc(Cl)c4)nn3)[C@H]2OC)[C@H]2CCCC[C@@H]2O)c1 [Example 141, (2R,3R,4S,5R,6R)-4-(4-(3-chloro-5-fluorophenyl)-1H-1,2,3-triazol-1-yl)-N-(3-cyano-5-methoxyphenyl)-5-hydroxy-N-((1S,2S)-2-hydroxycyclohexyl)-6-(hydroxymethyl)-3-methoxytetrahydro-2H-pyran-2-carboxamide] | 1.56 µM | 0.056 µM |
| CO[C@@H]1[C@@H](n2cc(-c3cc(F)cc(Cl)c3)nn2)[C@@H](O)[C@@H](CO)O[C@H]1C(=O)N(c1cccc(C#N)c1)[C@H]1CCCC[C@@H]1O [Example 142, (2R,3R,4S,5R,6R)-4-(4-(3-chloro-5-fluorophenyl)-1H-1,2,3-triazol-1-yl)-N-(3-cyanophenyl)-5-hydroxy-N-((1S,2S)-2-hydroxycyclohexyl)-6-(hydroxymethyl)-3-methoxytetrahydro-2H-pyran-2-carboxamide] | 1.67 µM | 0.077 µM |
| CO[C@@H]1[C@@H](n2cc(-c3cc(F)cc(Cl)c3)nn2)[C@@H](O)[C@@H](CO)O[C@H]1C(=O)N(c1cccc(Cl)c1)[C@H]1CCCC[C@@H]1O [Example 143, (2R,3R,4S,5R,6R)-4-(4-(3-chloro-5-fluorophenyl)-1H-1,2,3-triazol-1-yl)-N-(3-chlorophenyl)-5-hydroxy-N-((1S,2S)-2-hydroxycyclohexyl)-6-(hydroxymethyl)-3-methoxytetrahydro-2H-pyran-2-carboxamide] | 1.41 µM | 0.024 µM |
| CO[C@@H]1[C@@H](n2cc(-c3cc(F)cc(Br)c3)nn2)[C@@H](O)[C@@H](CO)O[C@H]1C(=O)N(c1cc(Cl)cc(Cl)c1)[C@H]1CCCC[C@@H]1O [Example 144, (2R,3R,4S,5R,6R)-4-(4-(3-bromo-5-fluorophenyl)-1H-1,2,3-triazol-1-yl)-N-(3,5-dichlorophenyl)-5-hydroxy-N-((1S,2S)-2-hydroxycyclohexyl)-6-(hydroxymethyl)-3-methoxytetrahydro-2H-pyran-2-carboxamide] | 0.726 µM | 0.061 µM |
| CO[C@@H]1[C@@H](n2cc(-c3cc(F)cc(Br)c3)nn2)[C@@H](O)[C@@H](CO)O[C@H]1C(=O)N(c1cc(Cl)cc(C#N)c1)[C@H]1CCCC[C@@H]1O [Example 145, (2R,3R,4S,5R,6R)-4-(4-(3-bromo-5-fluorophenyl)-1H-1,2,3-triazol-1-yl)-N-(3-chloro-5-cyanophenyl)-5-hydroxy-N-((1S,2S)-2-hydroxycyclohexyl)-6-(hydroxymethyl)-3-methoxytetrahydro-2H-pyran-2-carboxamide] | 0.218 µM | 0.018 µM |
